≈ marks a conversion by molar mass, not a printed value. Like-named read-outs stand apart in the source and are kept apart here.
Experiments:
[1] = tested on: carbapenem-resistant Klebsiella pneumonia NCCP 15782 (CRKP 15782); experiment: MIC, broth dilution; format: cell-based; conditions: 16 hours
Source text: (§1) Among the bacterial strains used in the experiment, Escherichia coli KCTC 1682 was obtained from the Korean Collection for Type Cultures (KCTC) (Jeongeup, Korea), Acinetobacter baumannii KCCM 40203 and Pseudomonas aeruginosa KCCM 11328 were obtained from the Korean Culture Center of Microorganisms (KCCM) (Seoul, Korea), and Klebsiella pneumonia NCCP 16054 was obtained from the National Culture Collection for Pathogens (NCCP) (Osong, Korea). In addition, carbapenem-resistant E. coli NCCP16044 and carbapenem-resistant Klebsiella pneumonia NCCP 15782 were obtained from the NCCP, and three types of carbapenem-resistant A. baumanii CCARM 12004-6 were obtained from the Culture Collection of Antimicrobial Resistance Microbes (CCARM) (Cheongju City, Korea). The E. coli K1 (ATCC700973) strain used in the animal experiments was obtained from the American Type Culture Collection (ATCC) ([…]).
(§2) The antimicrobial activities of the peptides were measured by a minimal inhibitory concentration (MIC) analysis. The MIC was determined using a broth dilution method. All bacterial strains were grown overnight at 37° C. in a Muller-Hinton (MH) medium.

[2] = tested on: Klebsiella pneumonia NCCP 16054; experiment: MIC, broth dilution; format: cell-based; conditions: standard Gram-negative bacteria, 16 hours
Source text: as §1, §2

[3] = tested on: Pseudomonas aeruginosa KCCM 11328; experiment: MIC, broth dilution; format: cell-based; conditions: standard Gram-negative bacteria, 16 hours
Source text: as §1, §2

[4] = tested on: Acinetobacter baumannii KCCM 40203; experiment: MIC, broth dilution; format: cell-based; conditions: standard Gram-negative bacteria, 16 hours
Source text: as §1, §2

intact CRAB bacteria = experiment: diSC3-5 membrane depolarization; format: cell-based, A. baumannii; conditions: 4 μM
Protocol: Depolarization ability by peptides was measured using a membrane potential-sensitive dye 3,3′-dipropylthiadicarbocyanine iodide (diSC3-5) using intact CRAB bacteria. CRAB cells were washed using a wash buffer (5 mM HEPES, 20 mM glucose, pH 7.4). The cells were resuspended in a dilution buffer (5 mM HEPES, 20 mM glucose, 0.1 M KCl, pH 7.4) and then cultured with a diSC3-5 dye (1 hour). Finally, the fluorescence changes of cells treated with various concentrations of peptides, a negative control (cells with dye) and a positive control (1% Triton X-100) were recorded using a fluorescence spectrophotometer, and the results are expressed as percent depolarization.

[5] = tested on: CRAB 12004 (carbapenem-resistant A. baumanii CCARM); experiment: MIC, broth dilution; format: cell-based, A. baumannii; conditions: 16 hours, read-out: Minimal inhibitory concentration (MIC), CRAB 12004
Source text: as §1, §2

[6] = tested on: CRAB 12006 (carbapenem-resistant A. baumanii CCARM); experiment: MIC, broth dilution; format: cell-based, A. baumannii; conditions: 16 hours, read-out: Minimal inhibitory concentration (MIC), CRAB 12006
Source text: as §1, §2

[7] = tested on: CRAB 12005 (carbapenem-resistant A. baumanii CCARM); experiment: MIC, broth dilution; format: cell-based, A. baumannii; conditions: 16 hours, read-out: Minimal inhibitory concentration (MIC), CRAB 12005
Source text: as §1, §2

[8] = tested on: Escherichia coli KCTC 1682; experiment: MIC, broth dilution; format: cell-based; conditions: standard Gram-negative bacteria, 16 hours, read-out: Minimal inhibitory concentration (MIC), E. coli
Source text: In addition, carbapenem-resistant E. coli NCCP16044 and carbapenem-resistant Klebsiella pneumonia NCCP 15782 were obtained from the NCCP, and three types of carbapenem-resistant A. baumanii CCARM 12004-6 were obtained from the Culture Collection of Antimicrobial Resistance Microbes (CCARM) (Cheongju City, Korea). The E. coli K1 (ATCC700973) strain used in the animal experiments was obtained from the American Type Culture Collection (ATCC) ([…]).
as §2

[9] = tested on: carbapenem-resistant E. coli NCCP16044 (CREC 16044); experiment: microbe, parasite or virus in culture; format: cell-based; conditions: 16 hours, read-out: Minimal inhibitory concentration (MIC), CREC 16044
Source text: as §1, §2

CRAB 12006 = experiment: Crystal violet biofilm inhibition; format: cell-based, A. baumannii; conditions: 0-32 μM, 16 h
Protocol: A crystal-violet-based assay was used to investigate the biofilm inhibition ability of R-Pro9-3D against A. baumannii standard bacteria and a CRAB 12006 line. […] Thereafter, bacterial cells were fixed with methanol (100%, 15 minutes) and then stained with crystal violet (0.1% (w/v) in 0.25% (v/v) acetic acid for 1 hour). The plate was washed with distilled H2O, dried and dissolved in ethanol (100% v/v). Color development, which indicates the extent of biofilm, was measured at 595 nm and expressed as biofilm formation percentage.

CC[C@H](C)[C@H](NC(=O)CN)C(=O)NCC(=O)N[C@@H](C)C(=O)N[C@H](C(=O)N[C@@H](CC(C)C)C(=O)N[C@@H](CCCCN)C(=O)N[C@H](C(=O)N[C@@H](CC(C)C)C(=O)N[C@H](C(=O)N[C@H](C(=O)NCC(=O)N[C@@H](CC(C)C)C(=O)N1CCC[C@H]1C(=O)N[C@@H](C)C(=O)N[C@@H](CC(C)C)C(=O)N[C@H](C(=O)N[C@@H](CO)C(=O)N[C@@H](Cc1c[nH]c2ccccc12)C(=O)N[C@H](C(=O)N[C@@H](CCCCN)C(=O)N[C@@H](CCCNC(=N)N)C(=O)N[C@@H](CCCCN)C(=O)N[C@@H](CCCNC(=N)N)C(=O)N[C@@H](CCC(N)=O)C(=O)N[C@@H](CCC(N)=O)C(N)=O)[C@@H](C)CC)[C@@H](C)CC)[C@@H](C)O)[C@@H](C)O)C(C)C)C(C)C [Melittin]
Minimal inhibitory concentration (MIC), CRKP 15782 [1]: 32 µM (≈ 91.1 µg/mL) | Minimal inhibitory concentration (MIC), K. pneumonia [2]: 32 µM (≈ 91.1 µg/mL) | Minimal inhibitory concentration (MIC), P. aeruginosa [3]: 16 µM (≈ 45.5 µg/mL) | Minimal inhibitory concentration (MIC), A. baumannii [4]: 4 µM (≈ 11.4 µg/mL) | Depolarization (intact CRAB bacteria): 75.6% | MIC [5]: 4 µM (≈ 11.4 µg/mL) | MIC [6]: 4 µM (≈ 11.4 µg/mL) | MIC [7]: 4 µM (≈ 11.4 µg/mL) | MIC [8]: 8 µM (≈ 22.8 µg/mL) | MIC [9]: 8 µM (≈ 22.8 µg/mL)

C[C@@H](O)[C@H]1C(=O)N2C(C(=O)O)=C(S[C@@H]3CN[C@H](C(=O)N(C)C)C3)[C@H](C)[C@H]12 [Meropenem]
Biofilm formation inhibition, CRAB 12006 (CRAB 12006): remarkably lower | MIC ([8]; Escherichia coli, KCTC1682): 0.25 µM (≈ 0.0959 µg/mL) | MIC ([9]; Escherichia coli): 8 µM (≈ 3.07 µg/mL)

Source: patent publication US20250019398A1, “NONAMERIC PEPTIDE HAVING EXCELLENT ANTIBACTERIAL ACTIVITY AGAINST GRAM-NEGATIVE BACTERIA AND ENANTIOMER THEREOF” (priority 2021, published 2025)
